Assay results published in PubChem BioAssay AID1963985 (Molecular Pharmacology Branch, DTP, NCI, 2024).
Values belong to the molecule of their own block, whether it stands above or below them.

Test system: 252836-082-R-J2-PDC tumor spheroids, viability
Test: Anticancer human tumor 252836-082-R-J2-PDC patient-derived head and neck squamous cell carcinoma cell line growth inhibition [PI3K]
Conditions: spheroids with HUVEC and MSC; for viability, T/C: stronger effect = lower value
Procedure, shortened: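 Viability of mixed-cell spheroids was determined after exposure to pairwise combinations, one partner being inavolisib, alpelisib, duvelisib or copanlisib. Highest tested concentration matched clinical Cmax where known and 10 microM where not, descending in half-log steps.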

[1] = curve of first compound, second compound 0.0316 µM
[2] = curve of first compound, second compound 0.1 µM
[3] = curve of first compound, second compound 0.316 µM
[4] = curve of first compound, second compound 1 µM
[5] = curve of first compound, second compound 3.16 µM
[6] = curve of first compound, second compound 10 µM
[7] = second compound 0.0316 µM, first compound 0.0316 µM
[8] = second compound 0.0316 µM, first compound 0.1 µM
[9] = second compound 0.0316 µM, first compound 0.316 µM
[10] = second compound 0.0316 µM, first compound 1 µM
[11] = second compound 0.0316 µM, first compound 3.16 µM
[12] = second compound 0.0316 µM, first compound 10 µM
[13] = second compound 0.1 µM, first compound 0.0316 µM
[14] = second compound 0.1 µM, first compound 0.1 µM
[15] = second compound 0.1 µM, first compound 0.316 µM
[16] = second compound 0.1 µM, first compound 1 µM
[17] = second compound 0.1 µM, first compound 3.16 µM
[18] = second compound 0.1 µM, first compound 10 µM
[19] = second compound 0.316 µM, first compound 0.0316 µM
[20] = second compound 0.316 µM, first compound 0.1 µM
[21] = second compound 0.316 µM, first compound 0.316 µM
[22] = second compound 0.316 µM, first compound 1 µM
[23] = second compound 0.316 µM, first compound 3.16 µM
[24] = second compound 0.316 µM, first compound 10 µM
[25] = second compound 1 µM, first compound 0.0316 µM
[26] = second compound 1 µM, first compound 0.1 µM
[27] = second compound 1 µM, first compound 0.316 µM
[28] = second compound 1 µM, first compound 1 µM
[29] = second compound 1 µM, first compound 3.16 µM
[30] = second compound 1 µM, first compound 10 µM
[31] = second compound 3.16 µM, first compound 0.0316 µM
[32] = second compound 3.16 µM, first compound 0.1 µM
[33] = second compound 3.16 µM, first compound 0.316 µM
[34] = second compound 3.16 µM, first compound 1 µM
[35] = second compound 3.16 µM, first compound 3.16 µM
[36] = second compound 3.16 µM, first compound 10 µM
[37] = second compound 10 µM, first compound 0.0316 µM
[38] = second compound 10 µM, first compound 0.1 µM
[39] = second compound 10 µM, first compound 0.316 µM
[40] = second compound 10 µM, first compound 1 µM
[41] = second compound 10 µM, first compound 3.16 µM
[42] = second compound 10 µM, first compound 10 µM
[43] = curve of first compound, second compound 0.00316 µM
[44] = curve of first compound, second compound 0.01 µM
[45] = second compound 0.00316 µM, first compound 0.0316 µM
[46] = second compound 0.00316 µM, first compound 0.1 µM
[47] = second compound 0.00316 µM, first compound 0.316 µM
[48] = second compound 0.00316 µM, first compound 1 µM
[49] = second compound 0.00316 µM, first compound 3.16 µM
[50] = second compound 0.00316 µM, first compound 10 µM
[51] = second compound 0.01 µM, first compound 0.0316 µM
[52] = second compound 0.01 µM, first compound 0.1 µM
[53] = second compound 0.01 µM, first compound 0.316 µM
[54] = second compound 0.01 µM, first compound 1 µM
[55] = second compound 0.01 µM, first compound 3.16 µM
[56] = second compound 0.01 µM, first compound 10 µM
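Note: spheroids exposed to agents for seven days before readout.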
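Throughout, for viability, T/C: percent of vehicle DMSO control viability so 100% = untreated growth.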

Compound: CNC(=O)c1ccc(N2C(=S)N(c3ccc(C#N)c(C(F)(F)F)c3)C(=O)C2(C)C)cc1F + Cc1nc(NC(=O)N2CCCC2C(N)=O)sc1-c1ccnc(C(C)(C)C(F)(F)F)c1
IC50 [1]: > 10000 nM
IC50 [2]: > 10000 nM
IC50 [3]: > 10000 nM
IC50 [4]: > 10000 nM
IC50 [5]: > 10000 nM
IC50 [6]: < 31.6 nM
viability, T/C [7]: 99.5%
viability, T/C [8]: 93.2%
viability, T/C [9]: 103%
viability, T/C [10]: 91%
viability, T/C [11]: 94.7%
viability, T/C [12]: 84.8%
viability, T/C [13]: 87.3%
viability, T/C [14]: 75.7%
viability, T/C [15]: 80.8%
viability, T/C [16]: 86.5%
viability, T/C [17]: 99.1%
viability, T/C [18]: 82.1%
viability, T/C [19]: 68%
viability, T/C [20]: 72%
viability, T/C [21]: 82%
viability, T/C [22]: 83.5%
viability, T/C [23]: 74.1%
viability, T/C [24]: 66%
viability, T/C [25]: 63%
viability, T/C [26]: 61.8%
viability, T/C [27]: 51.7%
viability, T/C [28]: 68.3%
viability, T/C [29]: 60.8%
viability, T/C [30]: 54.5%
viability, T/C [31]: 45.1%
viability, T/C [32]: 55.9%
viability, T/C [33]: 49.5%
viability, T/C [34]: 49.2%
viability, T/C [35]: 54.3%
viability, T/C [36]: 46.1%
viability, T/C [37]: 27.4%
viability, T/C [38]: 36.2%
viability, T/C [39]: 33.9%
viability, T/C [40]: 35.4%
viability, T/C [41]: 40.3%
viability, T/C [42]: 35.8%

Compound: Cc1nc(NC(=O)N2CCCC2C(N)=O)sc1-c1ccnc(C(C)(C)C(F)(F)F)c1 (stereo not given)
viability, T/C (compound 0.0316 µM): 86.2% [middle of 8 runs]
viability, T/C (compound 0.1 µM): 88.9% [middle of 8 runs]
viability, T/C (compound 0.316 µM): 81% [middle of 8 runs]
viability, T/C (compound 1 µM): 62.9% [middle of 8 runs]
viability, T/C (compound 3.16 µM): 48% [middle of 8 runs]
viability, T/C (compound 10 µM): 35% [middle of 8 runs]
IC50 (compound alone, run of 06/12/2023): 2.64 µM [middle of 8 runs]

Further lines, with some results ahead:

IC50 [1]: > 10000 nM
IC50 [2]: > 10000 nM
IC50 [3]: > 10000 nM
IC50 [4]: > 10000 nM
IC50 [5]: > 10000 nM
IC50 [6]: > 10000 nM
Compound: C=CC(=O)N1CCN(c2nc(=O)n(-c3c(C)ccnc3C(C)C)c3nc(-c4c(O)cccc4F)c(F)cc23)C(C)C1 (stereo not given) + CC(Nc1ncnc2nc[nH]c12)c1cc2cccc(Cl)c2c(=O)n1-c1ccccc1
viability, T/C [7]: 94.3%
viability, T/C [8]: 95.8%
viability, T/C [9]: 103%
viability, T/C [10]: 103%
viability, T/C [11]: 105%
viability, T/C [12]: 98%
viability, T/C [13]: 88.5%
viability, T/C [14]: 92.5%
viability, T/C [15]: 96.1%
viability, T/C [16]: 89.8%
viability, T/C [17]: 96.3%
viability, T/C [18]: 100%
viability, T/C [19]: 91%
viability, T/C [20]: 96.6%
viability, T/C [21]: 107%
viability, T/C [22]: 99.7%
viability, T/C [23]: 104%
viability, T/C [24]: 90.5%
viability, T/C [25]: 85.7%
viability, T/C [26]: 90.4%
viability, T/C [27]: 118%
viability, T/C [28]: 102%
viability, T/C [29]: 108%
viability, T/C [30]: 123%
viability, T/C [31]: 74.9%
viability, T/C [32]: 70.3%
viability, T/C [33]: 74.7%
viability, T/C [34]: 86.2%
viability, T/C [35]: 93.3%
viability, T/C [36]: 82.7%
viability, T/C [37]: 72.5%
viability, T/C [38]: 57.5%
viability, T/C [39]: 69.4%
viability, T/C [40]: 72.8%
viability, T/C [41]: 94.9%
viability, T/C [42]: 74.9%

IC50 [43]: 383 nM
IC50 [44]: 294 nM
IC50 [1]: 328 nM
IC50 [2]: 160 nM
IC50 [3]: < 31.6 nM
IC50 [4]: < 31.6 nM
Compound: Cn1ncc(Cl)c1-c1cc(C(=O)NC(CN)Cc2cccc(F)c2)sc1Cl (stereo not given) + CC(Nc1ccc2c(c1)OCCn1cc(N3C(=O)OCC3C(F)F)nc1-2)C(N)=O
viability, T/C [45]: 82.5%
viability, T/C [46]: 67.8%
viability, T/C [47]: 47.6%
viability, T/C [48]: 39.8%
viability, T/C [49]: 29.7%
viability, T/C [50]: 9.51%
viability, T/C [51]: 80.8%
viability, T/C [52]: 62.8%
viability, T/C [53]: 50%
viability, T/C [54]: 33.6%
viability, T/C [55]: 26.7%
viability, T/C [56]: 12.8%
viability, T/C [7]: 74.2%
viability, T/C [8]: 61.8%
viability, T/C [9]: 48.8%
viability, T/C [10]: 39.3%
viability, T/C [11]: 26.6%
viability, T/C [12]: 11.5%
viability, T/C [13]: 66.9%
viability, T/C [14]: 53.3%
viability, T/C [15]: 45.8%
viability, T/C [16]: 26.9%
viability, T/C [17]: 24.7%
viability, T/C [18]: 8%
viability, T/C [19]: 45.5%
viability, T/C [20]: 43.3%
viability, T/C [21]: 34.3%
viability, T/C [22]: 25.6%
viability, T/C [23]: 22.4%
viability, T/C [24]: 14.1%
viability, T/C [25]: 40.9%
viability, T/C [26]: 36.8%
viability, T/C [27]: 30.3%
viability, T/C [28]: 24.8%
viability, T/C [29]: 23.7%
viability, T/C [30]: 10.5%

IC50 [43]: 710 nM
IC50 [44]: 749 nM
IC50 [1]: 631 nM
IC50 [2]: 234 nM
IC50 [3]: 173 nM
IC50 [4]: < 31.6 nM
Compound: CC(C)NCC(C(=O)N1CCN(c2ncnc3c2C(C)CC3O)CC1)c1ccc(Cl)cc1 (stereo not given) + CC(Nc1ccc2c(c1)OCCn1cc(N3C(=O)OCC3C(F)F)nc1-2)C(N)=O
viability, T/C [45]: 100%
viability, T/C [46]: 83%
viability, T/C [47]: 66.9%
viability, T/C [48]: 41.4%
viability, T/C [49]: 29.8%
viability, T/C [50]: 18.3%
viability, T/C [51]: 83.1%
viability, T/C [52]: 88.3%
viability, T/C [53]: 69.6%
viability, T/C [54]: 42.5%
viability, T/C [55]: 28.5%
viability, T/C [56]: 20.1%
viability, T/C [7]: 87.4%
viability, T/C [8]: 82.3%
viability, T/C [9]: 67%
viability, T/C [10]: 36.9%
viability, T/C [11]: 29.3%
viability, T/C [12]: 17.9%
viability, T/C [13]: 74.8%
viability, T/C [14]: 56.4%
viability, T/C [15]: 47.9%
viability, T/C [16]: 35.8%
viability, T/C [17]: 23.8%
viability, T/C [18]: 15.7%
viability, T/C [19]: 54.9%
viability, T/C [20]: 49.6%
viability, T/C [21]: 49.4%
viability, T/C [22]: 37.3%
viability, T/C [23]: 25.4%
viability, T/C [24]: 16.6%
viability, T/C [25]: 43%
viability, T/C [26]: 42.2%
viability, T/C [27]: 37.3%
viability, T/C [28]: 29.2%
viability, T/C [29]: 22.8%
viability, T/C [30]: 14.7%
